Experimental data: patent US7112578B2, “Methods and compositions for treatment of inflammatory disease” (priority 2000, dated 2006)

Tests used:
Format in all cases: in vivo, human
bilateral hip arthritis = assay: Treatment of bilateral hip arthritis with a CMO compound and doxycycline (case report)
Method: Doxycycline therapy was used for treatment of a middle aged person suffering from bilateral hip arthritis and experiencing severe pain despite increasing doses of NSAIDs. […] Cox-2 inhibitors were substituted for the NSAID agents with better results. However, over time, it was necessary to increase the doses of both agents to two to three times the initial dose in order to maintain adequate symptomatic relief. […] A CMO compound was added and the dosage of the other agents decreased to initial levels. […] The Cox-2 agent was discontinued with no increase in severity of symptoms.

knee arthritis = assay: Treatment of knee arthritis with a CMO compound and a tetracycline compound (case report)
Method: NSAID therapy was halted and tetracycline therapy was added.

[1] = system: ankle and knee arthritis pain; assay: Treatment of ankle and knee arthritis with a CMO compound and doxycycline (case report)
bee sting = assay: Relief of venom induced inflammation, topical treatment of bee stings (case report); settings: bee sting on one arm of the same individual
Method: Different bee stings on the same individual were treated by two different methods. A bee sting on one arm was treated with papain with mild relief from pain and swelling. A second bee sting on the other arm was treated with papain, a eutectic mixture of local anaesthetics (EMLA®) and a topical steroid (Kenalog). […] The improved relief from pain was apparent even after all other sensation had returned to normal in the area which received the EMLA® treatment.

[2] = dosage of doxycycline and Cox-2 agent decreased to initial levels

## CCCC/C=C\CCCCCCCC(=O)OCCCCCCCCCCCCCCCC [CMO, cetyl myristoleate]
Bilateral hip arthritis; [2]
  side effects after a CMO compound was added: side effects disappeared
  symptomatic relief after a CMO compound was added: improved symptomatic relief
Bilateral hip arthritis; patient on CMO compound and doxycycline
  symptoms when the agent was discontinued: worsening symptomatology
Knee arthritis; despite increase in dose of the remaining agent
  symptoms when the agent was discontinued: symptoms worsened
Knee arthritis; middle-aged, one patient
  symptomatic relief of knee arthritis: did not respond well
[1]; combination of CMO compound and doxycycline
  symptoms when the agent was discontinued: Symptoms returned
[1]; female senior citizen, CMO therapy alone
  relief of ankle and knee arthritis pain: no or minimal relief

## C[C@H]1c2cccc(O)c2C(=O)C2=C(O)[C@]3(O)C(=O)C(C(N)=O)=C(O)[C@@H](N(C)C)[C@@H]3[C@@H](O)[C@@H]21 [doxycycline, reference compound]
Bilateral hip arthritis; doxycycline with Cox-2 inhibitor
  side effects at two to three times the initial dose of both agents: dizziness, nausea and abdominal pain
Bilateral hip arthritis; middle aged person
  side effect, doxycycline added to NSAIDs: gastrointestinal upset was problematic

B1: papain (protein, UniProt P00784 134-345, looked up)
Papain: IPEYVDWRQKGAVTPVKNQGSCGSCWAFSAVVTIEGIIKIRTGNLNEYSEQELLDCDRRSYGCNGGYPWSALQLVAQYGIHYRNTYPYEGVQRYCRSREKGPYAAKTDGVRQVQPYNEGALLYSIANQPVSVVLEAAGKDFQLYRGGIFVGPCGNKVDHAVAAVGYGPNYILIKNSWGTGWGENGYIRIKRGTGNSYGVCGLYTSSFYPVKN
notes: proteolytic enzyme applied topically
Bee sting
  relief from pain: mild relief
  swelling: mild relief
